Key:
NaV1.1 [1] = molecular target: T1, NaV1.1 (Homo sapiens (Human), UniProt P35498); assay: Electrophysiological Assay (EP), patch voltage clamp, NaV1.1; type: cell-based; conditions: HEK-293 cells, whole-cell patch clamp;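 also: sodium current block measured at ambient temperature, holding at fully inactivating potential, 20 ms repolarization to −150 mV before test pulse, versus 0.5% DMSO control currents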
NaV1.5 = NaV1.5 (Homo sapiens (Human), UniProt Q14524); assay: Sodium Influx Assay (Flux), NaV1.5; conditions: read-out: Flux NaV1.5 IC50; Trex HEK293 cells, ANG2 dye, inactivated state
Sequence of NaV1.5 (Q14524 other isoform, or with tags, fused parts or gaps): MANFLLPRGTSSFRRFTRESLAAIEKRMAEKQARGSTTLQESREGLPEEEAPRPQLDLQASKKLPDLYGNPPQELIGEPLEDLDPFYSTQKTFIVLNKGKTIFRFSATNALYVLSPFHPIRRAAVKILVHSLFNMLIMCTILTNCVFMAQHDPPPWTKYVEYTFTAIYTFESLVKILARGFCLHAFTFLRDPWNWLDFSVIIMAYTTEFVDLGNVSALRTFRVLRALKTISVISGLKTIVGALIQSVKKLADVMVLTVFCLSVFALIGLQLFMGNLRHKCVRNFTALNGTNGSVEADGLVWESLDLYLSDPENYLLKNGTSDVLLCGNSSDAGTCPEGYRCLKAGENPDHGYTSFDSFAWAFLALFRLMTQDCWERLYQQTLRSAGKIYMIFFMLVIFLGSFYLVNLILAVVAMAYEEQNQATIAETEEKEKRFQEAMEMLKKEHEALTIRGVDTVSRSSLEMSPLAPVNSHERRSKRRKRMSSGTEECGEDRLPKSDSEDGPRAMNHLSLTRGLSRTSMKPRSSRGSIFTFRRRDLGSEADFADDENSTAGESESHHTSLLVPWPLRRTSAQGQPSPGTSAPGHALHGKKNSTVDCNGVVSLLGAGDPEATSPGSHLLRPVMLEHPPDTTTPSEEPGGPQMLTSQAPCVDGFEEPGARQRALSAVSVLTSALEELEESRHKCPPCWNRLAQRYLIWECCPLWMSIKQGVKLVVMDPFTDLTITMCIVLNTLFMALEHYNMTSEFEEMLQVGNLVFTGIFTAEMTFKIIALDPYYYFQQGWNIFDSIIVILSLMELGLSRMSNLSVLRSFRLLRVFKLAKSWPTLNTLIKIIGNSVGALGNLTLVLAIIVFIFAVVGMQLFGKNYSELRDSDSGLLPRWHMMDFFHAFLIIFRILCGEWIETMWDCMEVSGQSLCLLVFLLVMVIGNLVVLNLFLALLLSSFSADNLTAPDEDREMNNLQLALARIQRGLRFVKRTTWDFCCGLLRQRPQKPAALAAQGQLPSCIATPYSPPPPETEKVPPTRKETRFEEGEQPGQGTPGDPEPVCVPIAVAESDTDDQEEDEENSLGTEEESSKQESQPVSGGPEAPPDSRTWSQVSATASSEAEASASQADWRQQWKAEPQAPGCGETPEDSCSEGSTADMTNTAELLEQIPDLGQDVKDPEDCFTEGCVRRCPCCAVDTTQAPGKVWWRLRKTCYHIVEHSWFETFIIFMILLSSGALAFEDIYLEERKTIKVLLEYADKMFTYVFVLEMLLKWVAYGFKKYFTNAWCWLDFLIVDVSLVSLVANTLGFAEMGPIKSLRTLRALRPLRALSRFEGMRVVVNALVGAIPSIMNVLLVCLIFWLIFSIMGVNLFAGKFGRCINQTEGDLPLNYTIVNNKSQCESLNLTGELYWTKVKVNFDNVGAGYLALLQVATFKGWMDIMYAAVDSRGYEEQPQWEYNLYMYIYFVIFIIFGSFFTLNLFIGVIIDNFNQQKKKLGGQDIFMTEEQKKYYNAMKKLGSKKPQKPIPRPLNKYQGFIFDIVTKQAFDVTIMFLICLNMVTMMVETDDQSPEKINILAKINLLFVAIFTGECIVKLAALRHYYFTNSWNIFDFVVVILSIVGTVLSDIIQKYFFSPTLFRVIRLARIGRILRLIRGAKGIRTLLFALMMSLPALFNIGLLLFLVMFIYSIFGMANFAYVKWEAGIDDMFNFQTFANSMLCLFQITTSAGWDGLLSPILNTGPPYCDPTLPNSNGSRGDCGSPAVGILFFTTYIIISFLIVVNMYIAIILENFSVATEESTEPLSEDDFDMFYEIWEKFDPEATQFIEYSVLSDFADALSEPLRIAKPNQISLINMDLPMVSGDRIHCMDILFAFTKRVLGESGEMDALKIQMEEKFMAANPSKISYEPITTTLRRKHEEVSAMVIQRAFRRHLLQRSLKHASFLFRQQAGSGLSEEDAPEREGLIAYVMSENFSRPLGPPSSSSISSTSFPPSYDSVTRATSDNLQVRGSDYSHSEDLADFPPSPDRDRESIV

NaV1.6 [2] = molecular target: T2, NaV1.6 (Homo sapiens (Human), UniProt Q9UQD0); assay: Electrophysiological Assay (EP), patch voltage clamp, NaV1.6; type: cell-based; conditions: HEK-293 cells, whole-cell patch clamp;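 also: sodium current recorded at ambient temperature, channels held inactivated then briefly repolarized to −150 mV for 20 ms before a test pulse, control currents in 0.5% DMSO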
T2 sequence (Q9UQD0 whole entry): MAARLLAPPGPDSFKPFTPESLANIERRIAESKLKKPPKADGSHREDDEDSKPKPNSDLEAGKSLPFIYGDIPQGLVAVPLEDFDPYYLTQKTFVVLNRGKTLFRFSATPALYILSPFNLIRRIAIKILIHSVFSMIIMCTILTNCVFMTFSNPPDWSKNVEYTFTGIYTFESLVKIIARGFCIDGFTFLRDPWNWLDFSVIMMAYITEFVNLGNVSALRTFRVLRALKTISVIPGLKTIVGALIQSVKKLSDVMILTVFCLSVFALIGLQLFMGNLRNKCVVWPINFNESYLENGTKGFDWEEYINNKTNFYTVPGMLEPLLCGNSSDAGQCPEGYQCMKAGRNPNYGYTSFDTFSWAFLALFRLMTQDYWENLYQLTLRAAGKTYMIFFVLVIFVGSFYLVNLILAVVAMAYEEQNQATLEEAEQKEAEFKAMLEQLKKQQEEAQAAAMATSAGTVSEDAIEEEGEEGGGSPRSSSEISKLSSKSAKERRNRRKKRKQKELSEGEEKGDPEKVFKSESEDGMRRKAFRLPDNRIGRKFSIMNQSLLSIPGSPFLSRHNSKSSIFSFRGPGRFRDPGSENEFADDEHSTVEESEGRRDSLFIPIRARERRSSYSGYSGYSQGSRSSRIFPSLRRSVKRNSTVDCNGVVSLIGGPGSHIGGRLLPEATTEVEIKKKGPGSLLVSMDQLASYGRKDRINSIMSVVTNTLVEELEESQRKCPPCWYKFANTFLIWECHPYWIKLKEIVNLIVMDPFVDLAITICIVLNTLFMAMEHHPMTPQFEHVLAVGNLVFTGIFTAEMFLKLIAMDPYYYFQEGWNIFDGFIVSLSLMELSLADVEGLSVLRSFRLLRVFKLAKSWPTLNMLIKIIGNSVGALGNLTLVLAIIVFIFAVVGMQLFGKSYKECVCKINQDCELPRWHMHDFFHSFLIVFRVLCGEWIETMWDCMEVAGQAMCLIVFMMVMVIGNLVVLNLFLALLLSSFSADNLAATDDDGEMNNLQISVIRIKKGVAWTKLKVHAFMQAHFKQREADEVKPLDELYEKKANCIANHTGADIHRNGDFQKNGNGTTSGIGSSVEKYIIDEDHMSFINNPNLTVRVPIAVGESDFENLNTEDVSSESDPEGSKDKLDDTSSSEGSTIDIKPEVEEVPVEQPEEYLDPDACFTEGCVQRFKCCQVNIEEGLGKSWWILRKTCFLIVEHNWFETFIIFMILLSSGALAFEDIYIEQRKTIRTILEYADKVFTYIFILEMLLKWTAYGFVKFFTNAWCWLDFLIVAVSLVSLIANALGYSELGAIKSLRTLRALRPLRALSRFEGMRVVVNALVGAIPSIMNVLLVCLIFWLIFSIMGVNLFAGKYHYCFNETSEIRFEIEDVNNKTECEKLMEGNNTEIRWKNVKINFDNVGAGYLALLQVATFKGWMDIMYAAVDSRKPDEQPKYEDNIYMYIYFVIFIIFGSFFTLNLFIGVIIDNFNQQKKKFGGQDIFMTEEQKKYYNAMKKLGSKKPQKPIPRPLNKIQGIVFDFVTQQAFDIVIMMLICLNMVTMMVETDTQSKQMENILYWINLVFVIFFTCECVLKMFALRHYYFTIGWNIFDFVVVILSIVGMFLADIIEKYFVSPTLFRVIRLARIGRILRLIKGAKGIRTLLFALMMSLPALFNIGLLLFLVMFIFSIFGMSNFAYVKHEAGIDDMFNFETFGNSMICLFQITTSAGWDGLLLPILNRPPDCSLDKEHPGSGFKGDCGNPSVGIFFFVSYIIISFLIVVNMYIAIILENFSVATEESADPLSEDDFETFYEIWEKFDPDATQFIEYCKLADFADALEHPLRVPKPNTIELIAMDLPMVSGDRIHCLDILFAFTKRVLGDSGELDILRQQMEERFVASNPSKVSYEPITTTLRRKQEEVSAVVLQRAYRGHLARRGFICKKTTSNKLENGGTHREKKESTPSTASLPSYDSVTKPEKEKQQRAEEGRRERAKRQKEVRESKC

NaV1.6 [3] = molecular target: T2, NaV1.6; assay: Sodium Influx Assay (Flux), NaV1.6; type: cell-based; conditions: Trex HEK293 cells, ANG2 dye, inactivated state;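 also: Tetracycline-induced cells, compounds applied for one hour at room temperature with modulators holding channels open, IC50 from percent inhibition of sodium influx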
NaV1.1 [4] = molecular target: T1, NaV1.1; assay: Sodium Influx Assay (Flux), NaV1.1; type: cell-based; conditions: Trex HEK293 cells, ANG2 dye, inactivated state;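 also: channels co-expressed with human β1 subunit and held open by modulators, cells exposed to compounds for one hour at room temperature, IC50 from percent inhibition of influx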

SMILES	IC50 (NaV1.1 [1])	IC50 (NaV1.5)	IC50 (NaV1.6 [2])	IC50 (NaV1.6 [3])	IC50 (NaV1.1 [4])
C[C@H](Oc1ccc(S(=O)(=O)Nc2nccs2)c(F)c1Cl)c1ccccc1F [Example 10, (S)-3-chloro-2-fluoro-4-(1-(2-fluorophenyl)ethoxy)-N-(thiazol-2-yl)benzenesulfonamide]	5.47 µM	2.35 µM	128 nM	461 nM	1.63 µM
O=S(=O)(Nc1nccs1)c1cc(Cl)c(OCc2cccc3ccncc23)cc1F [Example 11, 5-chloro-2-fluoro-4-(isoquinolin-8-ylmethoxy)-N-(thiazol-2-yl)benzenesulfonamide]	10 µM	30 µM	34 nM	255 nM	30 µM
O=S(=O)(Nc1nccs1)c1cc(Cl)c(NCc2ccccc2CN2CCC2)cc1F [Example 16, 4-((2-(azetidin-1-ylmethyl)benzyl)amino)-5-chloro-2-fluoro-N-(thiazol-2-yl)benzenesulfonamide 2,2,2-trifluoroacetate]	2.19 µM	23.5 µM	4 nM	29 nM	5.41 µM
O=S(=O)(Nc1cscn1)c1cc(Cl)c(NCc2ccccc2CN2CCC2)cc1F [Example 19, 4-((2-(azetidin-1-ylmethyl)benzyl)amino)-5-chloro-2-fluoro-N-(thiazol-4-yl)benzenesulfonamide 2,2,2-trifluoroacetate]	10 µM	18.5 µM	130 nM	425 nM	11.7 µM
O=S(=O)(Nc1cscn1)c1cc(Cl)c(NC2(c3ccccc3)CC2)cc1F [Example 20, 5-chloro-2-fluoro-4-((1-phenylcyclopropyl)amino)-N-(thiazol-4-yl)benzenesulfonamide]	10 µM	30 µM	1180 nM	2050 nM	30 µM
C[C@H](Nc1cc(F)c(S(=O)(=O)Nc2cccc(F)n2)cc1Cl)c1ccccc1F [Example 22, (S)-5-chloro-2-fluoro-4-((1-(2-fluorophenyl)ethyl)amino)-N-(6-fluoropyridin-2-yl)benzenesulfonamide]	9 µM	4.86 µM	259 nM	1300 nM	4.29 µM
C[C@H](Nc1cc(F)c(S(=O)(=O)Nc2nccs2)cc1F)c1ccccc1F [Example 25, (S)-2,5-difluoro-4-((1-(2-fluorophenyl)ethyl)amino)-N-(thiazol-2-yl)benzenesulfonamide]	2.52 µM	10.3 µM	57 nM	175 nM	1.87 µM
C[C@H](Oc1cc(F)c(S(=O)(=O)Nc2nccs2)cc1F)c1ccccc1F [Example 26, (S)-2,5-difluoro-4-(1-(2-fluorophenyl)ethoxy)-N-(thiazol-2-yl)benzenesulfonamide]	6.75 µM	3.45 µM	113 nM	742 nM	4.74 µM
C[C@H](Nc1cc(F)c(S(=O)(=O)Nc2nccs2)c(F)c1)c1ccccc1F [Example 27, (S)-2,6-difluoro-4-((1-(2-fluorophenyl)ethyl)amino)-N-(thiazol-2-yl)benzenesulfonamide]	0.112 µM	8.49 µM	12 nM	69 nM	0.476 µM
CC[C@@H](Nc1ccc(S(=O)(=O)Nc2ncns2)cc1Cl)c1ccccc1 [Example 31, (R)-3-chloro-4-((1-phenylpropyl)amino)-N-(1,2,4-thiadiazol-5-yl)benzenesulfonamide]	10 µM	16.9 µM	118 nM	917 nM	6.17 µM
CC[C@@H](Nc1cc(F)c(S(=O)(=O)Nc2nccs2)cc1Cl)c1ccccc1 [Example 39, (R)-5-chloro-2-fluoro-4-((1-phenylpropyl)amino)-N-(thiazol-2-yl)benzenesulfonamide]	1.85 µM	6.81 µM	285 nM	791 nM	2.35 µM
CC[C@H](Nc1cc(F)c(S(=O)(=O)Nc2nccs2)cc1Cl)c1ccccc1 [Example 40, (S)-5-chloro-2-fluoro-4-((1-phenylpropyl)amino)-N-(thiazol-2-yl)benzenesulfonamide]	0.182 µM	7.9 µM	24 nM	123 nM	0.637 µM
O=S(=O)(Nc1nccs1)c1cc(Cl)c(NC(CC(F)(F)F)c2ccccc2)cc1F (stereo not shown) [Example 41, 5-chloro-2-fluoro-N-(thiazol-2-yl)-4-((3,3,3-trifluoro-1-phenylpropyl)amino)benzenesulfonamide]	0.031 µM	11.8 µM	10 nM	70 nM	0.364 µM
C[C@H](Nc1cc(F)c(S(=O)(=O)Nc2nccs2)cc1Cl)C1CCCCC1 [Example 42, (S)-5-chloro-4-((1-cyclohexylethyl)amino)-2-fluoro-N-(thiazol-2-yl)benzenesulfonamide]	6.77 µM	14.4 µM	305 nM	3030 nM	5.65 µM
O=S(=O)(Nc1nccs1)c1cc(Cl)c(NC2(c3ccccc3)CC2)cc1F [Example 43, 5-chloro-2-fluoro-4-((1-phenylcyclopropyl)amino)-N-(thiazol-2-yl)benzenesulfonamide]	4.1 µM	11.1 µM	28 nM	191 nM	2.14 µM
O=S(=O)(Nc1nccs1)c1cc(Cl)c(NC2(c3ccc(F)cc3)CC2)cc1F [Example 44, 5-chloro-2-fluoro-4-((1-(4-fluorophenyl)cyclopropyl)amino)-N-(thiazol-2-yl)benzenesulfonamide]	2.09 µM	30 µM	130 nM	347 nM	1.27 µM
CC[C@H](Nc1cc(F)c(S(=O)(=O)Nc2nccs2)cc1Cl)c1ccccc1F [Example 47, (S)-5-chloro-2-fluoro-4-((1-(2-fluorophenyl)propyl)amino)-N-(thiazol-2-yl)benzenesulfonamide]	0.114 µM	6.52 µM	10 nM	89 nM	0.816 µM
C[C@H](Nc1cc(F)c(S(=O)(=O)Nc2nccs2)cc1Cl)c1cccc(F)c1 [Example 49, (S)-5-chloro-2-fluoro-4-((1-(3-fluorophenyl)ethyl)amino)-N-(thiazol-2-yl)benzenesulfonamide]	0.26 µM	4.75 µM	19 nM	232 nM	0.888 µM
CC[C@H](Nc1cc(F)c(S(=O)(=O)Nc2nccs2)cc1Cl)c1ccccc1C [Example 54, (S)-5-chloro-2-fluoro-N-(thiazol-2-yl)-4-((1-(o-tolyl)propyl)amino)benzenesulfonamide]	1.02 µM	13.5 µM	25 nM	265 nM	3.24 µM
CC(Cc1cccnc1)Nc1cc(F)c(S(=O)(=O)Nc2nccs2)cc1Cl (stereo not shown) [Example 56, 5-chloro-2-fluoro-4-((1-(pyridin-3-yl)propan-2-yl)amino)-N-(thiazol-2-yl)benzenesulfonamide]	1.42 µM	30 µM	292 nM	949 nM	4.03 µM
O=S(=O)(Nc1cccc(F)n1)c1cc(Cl)c(NCc2cccc3ccncc23)cc1F [Example 62, 5-chloro-2-fluoro-N-(6-fluoropyridin-2-yl)-4-((isoquinolin-8-ylmethyl)amino)benzenesulfonamide]	3.1 µM	30 µM	52 nM	138 nM	17.3 µM
CN(C)CC(Nc1cc(F)c(S(=O)(=O)Nc2nccs2)cc1Cl)c1ccccc1 (stereo not shown) [Example 63, 5-Chloro-4-((2-(dimethylamino)-1-phenylethyl)amino)-2-fluoro-N-(thiazol-2-yl)benzenesulfonamide 2,2,2-trifluoroacetate]	10 µM	30 µM	66 nM	392 nM	14.1 µM
CN(C)C[C@@H](Nc1cc(F)c(S(=O)(=O)Nc2nccs2)cc1Cl)c1ccccc1 [Example 64, (S)-5-chloro-4-((2-(dimethylamino)-1-phenylethyl)amino)-2-fluoro-N-(thiazol-2-yl)benzenesulfonamide 2,2,2-trifluoroacetate]	10 µM	30 µM	85 nM	197 nM	14.5 µM
CN(C)C[C@H](Nc1cc(F)c(S(=O)(=O)Nc2nccs2)cc1Cl)c1ccccc1 [Example 65, (R)-5-chloro-4-((2-(dimethylamino)-1-phenylethyl)amino)-2-fluoro-N-(thiazol-2-yl)benzenesulfonamide 2,2,2-trifluoroacetate]	10 µM	30 µM	87 nM	1020 nM	2.23 µM
O=S(=O)(Nc1nccs1)c1cc(Cl)c(N[C@@H](CN2CCC2)c2ccccc2)cc1F [Example 66, (R)-4-((2-(azetidin-1-yl)-1-phenylethyl)amino)-5-chloro-2-fluoro-N-(thiazol-2-yl)benzenesulfonamide 2,2,2-trifluoroacetate]	10 µM	30 µM	1110 nM	1010 nM	0.908 µM
O=S(=O)(Nc1nccs1)c1cc(Cl)c(N[C@H](CN2CCC2)c2ccccc2)cc1F [Example 67, (S)-4-((2-(azetidin-1-yl)-1-phenylethyl)amino)-5-chloro-2-fluoro-N-(thiazol-2-yl)benzenesulfonamide 2,2,2-trifluoroacetate]	10 µM	30 µM	119 nM	426 nM	10.6 µM

From patent US11174268B2, “Benzenesulfonamide compouds and their use as therapeutic agents” (Xenon Pharmaceuticals Inc., priority 2016, dated 2021)
